{"source": "patent US10465005B2", "about": "“JAML specific binding agents, antibodies, and uses related thereto” (Emory University, priority 2011, dated 2019)", "molecules": {"B1": {"name": "Ad5: recombinant adenoviral fiber knob protein Ad5, reported to bind murine CAR (protein)", "chain": "GAITVGNKNNDKLTLWTTPAPSPNCRLNAEKDAKLTLVLTKCGSQILATVSVLAVKGSLAPISGTVQSAHLIIRFDENGVLLNNSFLDPEYWNFRNGDLTEGTAYTNAVGFMPNLSAYPKSHGKTAKSNIVSQVYLNGDKTKPVTLTITLNGTQETGDTTPSAYSMSFSWDWSGHNYINEIFATSSYTFSYIAQE", "modifications": "left off: small tags and cut ends"}}, "key": {"[1]": {"system": "PMN", "test": "Surface JAML on PMN after activation (flow cytometry)", "format": "cell-based, human", "settings": "PMA 200 nM, suspension, 15 minutes at 37° c.; FIG. 4A", "description": "Freshly isolated PMN, not treated (No Tx), or treated with either fMLF (100 nM) or PMA (200 nM) in suspension for 15 minutes at 37° c. were fixed with 1% paraformaldehyde, stained for JAML (DW100) and CD11b/CD18 (CBRM 1/29) and analyzed for surface expression by flow cytometry.\nSince prior to transepithelial migration PMNs exit the blood vessels, whether JAML expression on PMNs would be preserved during migration across endothelial cells (HDMECs) towards a 10 μM fMLF, as described previously was evaluated. Indeed under similar conditions only a small portion of surface JAML was lost, but most of it was still detectable on PMN surface (FIG. 3B).\nThus whether PMN activation alone is sufficient to induce the loss of surface JAML or whether direct contact with the epithelium is required was examined. To test this, the expression of JAML was analyzed on PMNs that were stimulated in suspension with fMLF (100 μM) and PMA (200 nM). PMNs were allowed to adhere to epithelial cells for 1 hour. The loss of JAML could be correlated to the degree of PMN activation. […] This was again confirmed by immunofluorescence (FIG. 4B). PMN adhesion to epithelium in the absence of proinflamatory stimulus (as measured by flow cytometry, gating on Mac-1 positive PMNs) was also sufficient to induce a partial loss of surface JAML (FIG. 4C), in agreement with the small loss of surface JAML observed after migration through endothelial cells (FIG. 3B). […] Next, the observed loss of JAML during PMN activation may be due to its shedding from PMN surface and thus would be detectable in the supernatant of activated cells. To test this hypothesis, two antibodies, DW100 and DW216 that recognize two different epitopes of JAML were used in a sandwich ELISA assay to capture solubilized molecules in the supernatant of activated PMN."}, "[2]": {"system": "HL-60 and PLB-985 cell lines", "test": "Surface JAML on HL-60 and PLB-985 after PMA activation", "format": "cell-based, human", "settings": "200 nM PMA, 30 minutes at 37° C.; FIG. 5A", "description": "Both HL60 and PLB985 (non-differentiated and differentiated) were washed in Hanks solution with Ca^++ and Mg^++ (H^+) at 30×10^6 cells per condition and resuspended in 350 μl H^+ or H^+ containing 200 nM PMA followed by 30 minutes incubation at 37° C. A cell aliquot was set aside for flow cytometry and cells were stained with monoclonal CBRM1/29 (CD11b/CD18) or DW100 anti JAML followed by Alexa Fluor 488 conjugated goat anti mouse antibody.\nThe findings of JAML shedding were extended to both HL-60 and PLB-985 cell lines. […] Upon activation, human neutrophils release microparticles,called ectosomes, directly from the cell surface and that ectosomes are implicated in the inflammatory response (Eken et al., 2008, J. Immunol. 180, 817-824). To test whether JAML molecules were released in microparticles, supernatants from activated cells were subjected to ultracentrifuge (100,000×g). […] Thus, JAML is indeed shed into the medium upon PMN activation as a soluble molecule."}, "[3]": {"system": "monocytes", "test": "Surface JAML on monocytes after PMA activation", "format": "cell-based, human", "settings": "15 minutes at 37° C., FIG. 11", "description": "Monocytes were isolated and purified from whole blood of healthy human donors, incubated on ice with either IgG control (solid histograms) or purified anti-JAML antibodies (5 μg/ml), followed by Alexa Fluor 488 conjugated goat anti mouse antibody before (NoTx) and after PMA activation (PMA, 15 minutes at 37° C.). JAML surface expression was analyzed by flow cytometry.\nFollowing the observation of a complete loss of JAML on PMNs that underwent TEM and with the use of JAML specific mAbs, it was determined that the loss of JAML was induced by PMN activation and that it correlated to the degree of activation and the strength of the given stimulus. […] JAML shedding is not restricted to PMNs alone. JAML is also expressed on blood monocytes. […] As monocytes trail the PMNs infiltrating mucosal surfaces, in addition to PMNs they would also be a source for soluble JAML, further enhancing its effects on epithelial function. […] The shedding of JAML is believed to be due to a zinc-dependent metalloprotease that is inhibited by phenanthroline, a zinc chelator molecule and TAPI-2, a hydroxymate acid-base derivative which inhibits zinc-dependent metalloprotease activities by binding specifically to the catalytic site of the enzyme."}, "[4]": {"system": "JAML shedding from PLB985", "test": "JAML shedding with protease inhibitors, PLB985", "format": "cell-based, human", "settings": "Phenanthroline; TAPI-2 1 μM", "description": "FIG. 5C. Inhibition of JAML shedding on the cell surface of PLB985 was confirmed by FACS analysis of cells stained with DW216. In the presence of inhibitors, activated cells maintained the same level of surface expression as the non-activated cells.\nTo explore the mechanisms for release of JAML from the surface of differentiated HL60 and PLB-985 cells during activation with PMA, PMA was added to cells in the presence or absence of a variety of protease inhibitors. The protease inhibitor cocktail from Sigma that targets serine proteases was used as well as cysteine proteases and several independent inhibitors. […] (Le Gall et al., 2003, JBC 278 No46 45255-45268).\nCells suspensions of adherent cells were prepared by trypsinization with Trypsin-EDTA (Sigma). After washing, cells were resuspended in FACS buffer (2% FBS in PBS+0.1% Na Azide). Approximately, 3-5×10^5 cells were incubated with 5-10 μg/ml of primary antibody for 1 hr at 4° C. followed by 3 washes in FACS buffer and incubation with 1 μg/ml secondary antibody conjugated with Alexa-488. After final washes, cells were analyzed using FACS Calibur. […] All samples were stained for JAML (DW100 mAb) and CD11b/CD18 (CBRM 1/29), and only CD11b/CD18 positive cells (PMNs) were analyzed for JAML expression."}, "[5]": {"system": "JAML release from CHO-JAML-His transfectants", "test": "JAML release with protease inhibitors, CHO-JAML-His transfectants", "format": "cell-based"}, "[6]": {"molecular_target": "T1, CAR (Mus musculus, UniProt P97792)", "T1 construct": "from tissue; host or cells: mouse colonic mucosa", "T1 sequence (P97792 20-365)": "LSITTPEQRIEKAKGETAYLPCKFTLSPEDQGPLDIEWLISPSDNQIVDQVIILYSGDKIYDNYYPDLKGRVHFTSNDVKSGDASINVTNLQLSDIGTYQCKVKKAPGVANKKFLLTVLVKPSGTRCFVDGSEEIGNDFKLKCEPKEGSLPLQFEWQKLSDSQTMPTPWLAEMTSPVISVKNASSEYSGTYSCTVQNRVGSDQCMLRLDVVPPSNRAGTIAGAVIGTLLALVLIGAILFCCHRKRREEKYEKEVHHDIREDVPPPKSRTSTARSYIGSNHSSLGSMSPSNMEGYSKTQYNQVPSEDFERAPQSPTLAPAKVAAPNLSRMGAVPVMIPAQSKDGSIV", "test": "Colonic mucosal wound healing in vivo", "settings": "mice; I.P. twice a day 10 μg in 200 μl PBS; endoscopic imaging; FIG. 13B", "description": "(§1) To examine this in-vivo, the effect of inhibition of CAR function was analyzed on mucosal wound recovery. […] See Witherden et al., Science, 2010, 329(5996): 1205-1210. Whether administration of recombinant Ad5 inhibits colonic wound healing was examined in mice in a fashion analogous to the endogenous CAR ligand, JAML. Colonic mucosal wounds were generated using a mouse colonoscope, and wound recovery was examined 2 and 4 days post wounding by endoscopic imaging in the presence of Ad5, Ad11 (administered I.P, twice a day 10 μg in 200 μl PBS) or PBS alone.\nas §1, with “function” for “function was analyzed”, “recovery was analyzed.” for “recovery.”, “colonoscope (FIG. 13, Panel A),” for “colonoscope,”, “alone. […] The delayed wound closure was also evident from histological analysis (representative images, FIG. 13, Panel C) and whole mount preparation (representative images, FIG. 13, Panel D).” for “alone.”"}, "[7]": {"molecular_target": "T2, epithelial CAR (Mus musculus, UniProt P97792)", "T2 construct": "from tissue; host or cells: mouse colonic mucosa", "T2 sequence (P97792 20-365)": "T1 sequence (P97792 20-365)", "test": "Immunofluorescence of wounded mouse colonic tissue", "format": "in vivo", "settings": "I.P. administered his-tagged protein; 1 day after wounding; FIG. 13E"}, "[8]": {"molecular_target": "T3, murine CAR (Mus musculus, UniProt P97792)", "T3 sequence (P97792 20-365)": "T1 sequence (P97792 20-365)", "settings": "cited from earlier work"}}}
{"molecule": "CCCCCCCCCCCCCC(=O)O[C@@H]1[C@@H](C)[C@@]2(O)[C@@H](C=C(CO)C[C@]3(O)C(=O)C(C)=C[C@@H]23)[C@@H]2C(C)(C)[C@]12OC(C)=O", "note": "[PMA, Phorbol Myristate Acetate]", "values": [{"measurement": "surface JAML on PMN after PMA", "setting": "[1]", "result": "complete loss of surface JAML from PMNs"}, {"measurement": "surface JAML on HL-60 and PLB-985 after PMA", "setting": "[2]", "result": "complete loss of surface JAML"}, {"measurement": "JAML expression on monocytes after PMA", "setting": "[3]", "result": "lost upon activation with PMA"}]}
{"molecule": "CC(C)C[C@H](CC(=O)NO)C(=O)N[C@H](C(=O)N[C@@H](C)C(=O)NCCN)C(C)(C)C", "note": "[TAPI-2]", "values": [{"measurement": "inhibition of PMA-induced JAML shedding, PLB985", "setting": "[4]", "result": "inhibition of shedding"}, {"measurement": "inhibition of PMA-induced JAML release, CHO-JAML-His transfectants", "setting": "[5]", "result": "strongly inhibited JAML release due to PMA activation"}]}
{"molecule": "B1", "values": [{"measurement": "mucosal wound healing 4 days after wounding", "setting": "[6]", "result": "~20", "unit": "%"}, {"measurement": "colocalization with epithelial CAR at wounded areas", "setting": "[7]", "result": "colocalizes with epithelial CAR at wounded areas"}, {"measurement": "binding to murine CAR and competition with JAML binding (Witherden et al. 2010)", "setting": "[8]", "result": "has been reported to bind murine CAR and compete with JAML binding"}]}
